Where two headings read alike, the source gives them in different places.
Experiments:
[1] = Stability and biodistribution of prodrugs in vivo (HPLC of plasma and tissues); set-up: species or system mice (CD-1 nude; BALB/C where indicated)
[2] = target: T1, wild type human carboxypeptidase A1 (Homo sapiens, UniProt P15085); assay: Enzyme kinetics of prodrugs with wild type human carboxypeptidase A1 (coupled assay); format: biochemical
T1 sequence (P15085 111-419): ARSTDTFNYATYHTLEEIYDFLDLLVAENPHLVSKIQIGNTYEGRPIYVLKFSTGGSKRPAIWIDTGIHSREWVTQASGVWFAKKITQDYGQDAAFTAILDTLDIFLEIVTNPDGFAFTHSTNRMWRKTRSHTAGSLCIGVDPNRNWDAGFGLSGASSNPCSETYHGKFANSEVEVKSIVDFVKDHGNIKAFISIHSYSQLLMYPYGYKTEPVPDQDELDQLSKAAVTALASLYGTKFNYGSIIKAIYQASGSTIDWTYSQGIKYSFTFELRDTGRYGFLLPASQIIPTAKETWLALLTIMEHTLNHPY
Outline: (§1)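 Coupled spectrophotometric assay: released methotrexate converted by excess carboxypeptidase G (17 milliunits) to its pteroate, followed at 315 nm (Δε 9.57 mM^-1 cm^-1). 25° C in 25 mM tris-HCl, 100 mM NaCl, pH 7.4; reaction started with wild-type or mutant carboxypeptidase A. Kinetic constants from initial velocities by Michaelis-Menten analysis.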

268ala = assay: Enzyme kinetics of prodrugs with 268ala mutant of human CPA1 (coupled assay); format: biochemical; conditions: 25° C., pH 7.4
Outline: as §1

268gly = assay: Enzyme kinetics of prodrugs with 268gly mutant of human CPA1 (coupled assay); format: biochemical
Outline: as §1

mutant enzyme = assay: Substrate behaviour with mutant enzyme; format: biochemical, human
From the text: This type of compound is not useful for ADEPT.

[3] = mouse, in vivo, iv
in vivo = conditions: mouse, iv

CN(Cc1cnc2nc(N)nc(N)c2n1)c1ccc(C(=O)N[C@@H](CCC(=O)O)C(=O)N[C@@H](Cc2ccc(O)c(C3CCCC3)c2)C(=O)O)cc1 [Prodrug 13, N-(4-(((2,4-diamino-6-pteridinyl)methyl)methyamino)benzoyl)-L-glutam-1-yl-3-cyclopentyl-L-tyrosine]
concentration of prodrug in cecum ([1]; CECUM, 30 min, 50 mg/kg i.p. or i.v., CD-1 nude mice): 14.4 nmol/g
concentration of prodrug in cecum ([1]; CECUM, 120 min, 50 mg/kg i.p. or i.v., CD-1 nude mice): 4.8 nmol/g
concentration of prodrug in feces ([1]; FECES, 30 min, 50 mg/kg i.p. or i.v., CD-1 nude mice): 665.8 nmol/g
concentration of prodrug in feces ([1]; FECES, 120 min, 50 mg/kg i.p. or i.v., CD-1 nude mice): 738.4 nmol/g
concentration of prodrug in kidney ([1]; KIDNEY, 30 min, 50 mg/kg i.p. or i.v., CD-1 nude mice): 3.7 nmol/g
concentration of prodrug in kidney ([1]; KIDNEY, 120 min, 50 mg/kg i.p. or i.v., CD-1 nude mice): 0.5 nmol/g
concentration of prodrug in large intestine ([1]; LARGE INTESTINE, 30 min, 50 mg/kg i.p. or i.v., CD-1 nude mice): 7.9 nmol/g
concentration of prodrug in large intestine ([1]; LARGE INTESTINE, 120 min, 50 mg/kg i.p. or i.v., CD-1 nude mice): 12.5 nmol/g
concentration of prodrug in liver ([1]; LIVER, 30 min, 50 mg/kg i.p. or i.v., CD-1 nude mice): 47.7 nmol/g
concentration of prodrug in liver ([1]; LIVER, 120 min, 50 mg/kg i.p. or i.v., CD-1 nude mice): 129.0 nmol/g
concentration of prodrug in small intestine ([1]; SMALL INTESTINE, 30 min, 50 mg/kg i.p. or i.v., CD-1 nude mice): 373.7 nmol/g
concentration of prodrug in small intestine ([1]; SMALL INTESTINE, 120 min, 50 mg/kg i.p. or i.v., CD-1 nude mice): 322.1 nmol/g
concentration of prodrug in spleen ([1]; SPLEEN, 30 min, 50 mg/kg i.p. or i.v., CD-1 nude mice): 0.6 nmol/g
concentration of prodrug in spleen ([1]; SPLEEN, 120 min, 50 mg/kg i.p. or i.v., CD-1 nude mice): 0.2 nmol/g
stability in vivo (in words) ([1]; mice, 50 mg/kg): stable in vivo
remaining at 0.5 h ([1]; mouse, cecum, 50 mg/kg, CECUM, 30 min, 50 mg/kg i.p. or i.v., CD-1 nude mice, read-out: stability: percentage of material observed as intact prodrug, cecum): 100%
remaining at 2 h ([1]; mouse, cecum, 50 mg/kg, CECUM, 120 min, 50 mg/kg i.p. or i.v., CD-1 nude mice, read-out: stability: percentage of material observed as intact prodrug, cecum): 100%
remaining at 0.5 h ([1]; mouse, feces, 50 mg/kg, FECES, 30 min, 50 mg/kg i.p. or i.v., CD-1 nude mice, read-out: stability: percentage of material observed as intact prodrug, feces (converted)): 100%
remaining at 2 h ([1]; mouse, feces, 50 mg/kg, FECES, 120 min, 50 mg/kg i.p. or i.v., CD-1 nude mice, read-out: stability: percentage of material observed as intact prodrug, feces): 100%
remaining at 0.5 h ([1]; mouse, kidney, 50 mg/kg, KIDNEY, 30 min, 50 mg/kg i.p. or i.v., CD-1 nude mice, read-out: stability: percentage of material observed as intact prodrug, kidney): 100%
remaining at 2 h ([1]; mouse, kidney, 50 mg/kg, KIDNEY, 120 min, 50 mg/kg i.p. or i.v., CD-1 nude mice, read-out: stability: percentage of material observed as intact prodrug, kidney): 100%
remaining at 0.5 h ([1]; mouse, large intestine, 50 mg/kg, LARGE INTESTINE, 30 min, 50 mg/kg i.p. or i.v., CD-1 nude mice, read-out: stability: percentage of material observed as intact prodrug, large intestine): 100%
remaining at 2 h ([1]; mouse, large intestine, 50 mg/kg, LARGE INTESTINE, 120 min, 50 mg/kg i.p. or i.v., CD-1 nude mice, read-out: stability: percentage of material observed as intact prodrug, large intestine): 100%
remaining at 0.5 h ([1]; mouse, liver, 50 mg/kg, LIVER, 30 min, 50 mg/kg i.p. or i.v., CD-1 nude mice, read-out: stability: percentage of material observed as intact prodrug, liver (converted)): 100%
remaining at 2 h ([1]; mouse, liver, 50 mg/kg, LIVER, 120 min, 50 mg/kg i.p. or i.v., CD-1 nude mice, read-out: stability: percentage of material observed as intact prodrug, liver): 100%
concentration at 0.5 h ([1]; mouse, plasma, 50 mg/kg, PLASMA, 30 min, 50 mg/kg i.p. or i.v., CD-1 nude mice, read-out: concentration of prodrug in plasma): 3300 nM
remaining at 0.5 h ([1]; mouse, plasma, 50 mg/kg, PLASMA, 30 min, 50 mg/kg i.p. or i.v., CD-1 nude mice, read-out: stability: percentage of material observed as intact prodrug, plasma): 100%
concentration at 2 h ([1]; mouse, plasma, 50 mg/kg, PLASMA, 120 min, 50 mg/kg i.p. or i.v., CD-1 nude mice, read-out: concentration of prodrug in plasma): 600 nM
remaining at 2 h ([1]; mouse, plasma, 50 mg/kg, PLASMA, 120 min, 50 mg/kg i.p. or i.v., CD-1 nude mice, read-out: stability: percentage of material observed as intact prodrug, plasma): 100%
remaining at 0.5 h ([1]; mouse, small intestine, 50 mg/kg, SMALL INTESTINE, 30 min, 50 mg/kg i.p. or i.v., CD-1 nude mice, read-out: stability: percentage of material observed as intact prodrug, small intestine): 100%
remaining at 2 h ([1]; mouse, small intestine, 50 mg/kg, SMALL INTESTINE, 120 min, 50 mg/kg i.p. or i.v., CD-1 nude mice, read-out: stability: percentage of material observed as intact prodrug, small intestine): 100%
remaining at 0.5 h ([1]; mouse, spleen, 50 mg/kg, SPLEEN, 30 min, 50 mg/kg i.p. or i.v., CD-1 nude mice, read-out: stability: percentage of material observed as intact prodrug, spleen): 100%
remaining at 2 h ([1]; mouse, spleen, 50 mg/kg, SPLEEN, 120 min, 50 mg/kg i.p. or i.v., CD-1 nude mice, read-out: stability: percentage of material observed as intact prodrug, spleen): 100%
human CPA catalyzed reaction (in words) [2]: not measureable
kcat/Km for human CPA1 compared with that of the L-phenylalanine prodrug (in words) [2]: much lower
substrate for wild type CPA (in words) [2]: not for the wild type enzyme
kcat (symbol ND) ([2]; Human CPA1, rate too slow to assay): ND (not determined; rate to slow assay. kcat ≤ 0.0005/sec.)
Km (268ala): 50 µM
kcat (268ala): 0.0006 s⁻¹
kcat/Km (268gly; 268Gly): 180000 M⁻¹ s⁻¹
Km (268gly; 268gly, 25° C., pH 7.4): 18 µM
kcat (268gly; 268gly, 25° C., pH 7.4): 3 s⁻¹
substrate for a mutant enzyme (in words) (mutant enzyme): good substrates for a mutant enzyme
maximum tolerated dose (MTD) [3]: > 50 mg/kg
MTD (in vivo): ≥ 50 mg/kg
